Results from publication PMC6812009, “Covalent Aurora A regulation by the metabolic integrator coenzyme A” (Redox Biology, 2019).

Tests used:
Experiment in all cases: Kinase profiling screen (radioactive filter-binding assay)
Type in all cases: biochemical
RSK2 = RSK2 (Homo sapiens, UniProt P51812); details: 100 μM compound, 50 μM ATP; read-out: Kinase activity, % of activity in the absence of inhibitor
Summary of the method: (§1)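 CoA, dpCoA and ADP were each tested in vitro, in duplicate, at 100 μM final concentration as part of a 117-kinase panel. Recombinant kinases were used with model substrates and optimal ATP concentrations.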

PKCβ = PKCβ (Homo sapiens, UniProt P05771); details: 100 μM compound, 50 μM ATP; read-out: Kinase activity, % of activity in the absence of inhibitor
Summary of the method: as §1

BRSK1 = target: T1, BRSK1 (Homo sapiens, UniProt Q8TDC3); details: 100 μM compound, 20 μM ATP; read-out: Kinase activity, % of activity in the absence of inhibitor
T1 sequence (Q8TDC3 1-778): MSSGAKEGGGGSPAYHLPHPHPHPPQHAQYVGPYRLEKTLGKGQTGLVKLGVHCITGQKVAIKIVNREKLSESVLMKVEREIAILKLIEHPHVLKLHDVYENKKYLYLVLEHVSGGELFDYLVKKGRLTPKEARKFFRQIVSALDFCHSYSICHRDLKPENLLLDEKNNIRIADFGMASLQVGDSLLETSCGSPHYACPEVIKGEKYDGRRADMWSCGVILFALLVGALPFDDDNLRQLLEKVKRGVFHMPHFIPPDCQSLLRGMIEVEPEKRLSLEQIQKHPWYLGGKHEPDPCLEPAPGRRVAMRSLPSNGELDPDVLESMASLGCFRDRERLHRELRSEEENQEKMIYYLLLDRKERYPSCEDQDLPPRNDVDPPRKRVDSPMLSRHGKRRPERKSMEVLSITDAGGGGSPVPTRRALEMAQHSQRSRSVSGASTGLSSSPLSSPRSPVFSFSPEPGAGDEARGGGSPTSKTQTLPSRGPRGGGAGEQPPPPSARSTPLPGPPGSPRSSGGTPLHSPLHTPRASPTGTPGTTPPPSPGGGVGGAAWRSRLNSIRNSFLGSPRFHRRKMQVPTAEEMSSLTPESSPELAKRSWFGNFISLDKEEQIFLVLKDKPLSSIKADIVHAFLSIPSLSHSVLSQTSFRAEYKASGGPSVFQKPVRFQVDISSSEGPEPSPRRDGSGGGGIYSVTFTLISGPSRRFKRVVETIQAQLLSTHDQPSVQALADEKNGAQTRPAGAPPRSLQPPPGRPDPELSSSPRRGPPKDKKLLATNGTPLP
Summary of the method: as §1

p38α MAPK = p38α MAPK (Homo sapiens, UniProt Q16539); details: 100 μM compound, 50 μM ATP; read-out: Kinase activity, % of activity in the absence of inhibitor
Summary of the method: as §1

MARK1 = MARK1 (Homo sapiens, UniProt Q9P0L2); details: 100 μM compound, 20 μM ATP; read-out: Kinase activity, % of activity in the absence of inhibitor
Summary of the method: as §1

Aurora B = Aurora B (Homo sapiens, UniProt Q96GD4); details: for activity at 100 µM: 100 μM compound, 20 μM ATP, read-out: Kinase activity, % of activity in the absence of inhibitor
Summary of the method: as §1

ERK1 = ERK1 (Homo sapiens, UniProt P27361); details: 100 μM compound, 5 μM ATP; read-out: Kinase activity, % of activity in the absence of inhibitor
Summary of the method: as §1

ERK8 = target: T2, ERK8 (Homo sapiens, UniProt Q8TD08); details: 100 μM compound, 5 μM ATP; read-out: Kinase activity, % of activity in the absence of inhibitor
T2 sequence (Q8TD08 1-544): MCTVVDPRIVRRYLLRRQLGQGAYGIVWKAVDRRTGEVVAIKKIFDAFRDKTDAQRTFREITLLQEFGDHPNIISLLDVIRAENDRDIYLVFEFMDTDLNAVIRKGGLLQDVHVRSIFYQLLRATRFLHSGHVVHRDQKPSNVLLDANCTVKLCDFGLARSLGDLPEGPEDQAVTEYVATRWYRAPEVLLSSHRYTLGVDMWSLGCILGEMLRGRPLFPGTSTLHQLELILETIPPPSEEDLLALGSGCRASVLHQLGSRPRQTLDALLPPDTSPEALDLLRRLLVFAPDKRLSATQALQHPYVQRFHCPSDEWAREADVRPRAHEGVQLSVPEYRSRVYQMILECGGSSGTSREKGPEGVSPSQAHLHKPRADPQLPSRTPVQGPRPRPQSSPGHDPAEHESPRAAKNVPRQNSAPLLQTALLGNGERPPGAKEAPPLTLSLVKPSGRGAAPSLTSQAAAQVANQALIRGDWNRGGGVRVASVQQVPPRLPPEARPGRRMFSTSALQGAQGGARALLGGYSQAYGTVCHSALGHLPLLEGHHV
Summary of the method: as §1

TTK = target: T3, TTK (Homo sapiens, UniProt P33981); details: 100 μM compound, 20 μM ATP; read-out: Kinase activity, % of activity in the absence of inhibitor
T3 sequence (P33981 1-857): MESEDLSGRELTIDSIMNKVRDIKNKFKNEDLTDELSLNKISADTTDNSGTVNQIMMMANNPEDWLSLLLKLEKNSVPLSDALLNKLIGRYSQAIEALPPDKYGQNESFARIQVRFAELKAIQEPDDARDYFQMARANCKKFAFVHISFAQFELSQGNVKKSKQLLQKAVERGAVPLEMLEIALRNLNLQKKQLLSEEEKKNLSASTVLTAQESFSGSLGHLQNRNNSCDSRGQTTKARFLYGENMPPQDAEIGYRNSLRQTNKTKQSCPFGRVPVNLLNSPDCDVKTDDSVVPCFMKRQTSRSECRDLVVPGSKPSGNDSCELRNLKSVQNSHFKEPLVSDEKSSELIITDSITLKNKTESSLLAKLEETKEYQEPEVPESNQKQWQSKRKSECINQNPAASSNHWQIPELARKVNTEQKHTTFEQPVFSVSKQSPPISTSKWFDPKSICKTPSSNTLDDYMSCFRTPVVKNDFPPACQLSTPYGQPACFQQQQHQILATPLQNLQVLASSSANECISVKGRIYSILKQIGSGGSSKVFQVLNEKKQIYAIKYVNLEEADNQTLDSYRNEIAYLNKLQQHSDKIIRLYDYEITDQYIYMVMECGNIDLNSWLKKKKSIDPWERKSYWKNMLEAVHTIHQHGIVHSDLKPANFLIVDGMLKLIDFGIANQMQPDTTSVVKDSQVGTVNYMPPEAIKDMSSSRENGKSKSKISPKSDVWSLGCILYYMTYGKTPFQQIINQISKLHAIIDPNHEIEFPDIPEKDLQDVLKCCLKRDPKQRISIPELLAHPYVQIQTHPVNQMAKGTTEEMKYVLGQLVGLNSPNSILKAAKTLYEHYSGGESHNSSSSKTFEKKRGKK
Summary of the method: as §1

PKCβ, sequence (P05771 whole entry): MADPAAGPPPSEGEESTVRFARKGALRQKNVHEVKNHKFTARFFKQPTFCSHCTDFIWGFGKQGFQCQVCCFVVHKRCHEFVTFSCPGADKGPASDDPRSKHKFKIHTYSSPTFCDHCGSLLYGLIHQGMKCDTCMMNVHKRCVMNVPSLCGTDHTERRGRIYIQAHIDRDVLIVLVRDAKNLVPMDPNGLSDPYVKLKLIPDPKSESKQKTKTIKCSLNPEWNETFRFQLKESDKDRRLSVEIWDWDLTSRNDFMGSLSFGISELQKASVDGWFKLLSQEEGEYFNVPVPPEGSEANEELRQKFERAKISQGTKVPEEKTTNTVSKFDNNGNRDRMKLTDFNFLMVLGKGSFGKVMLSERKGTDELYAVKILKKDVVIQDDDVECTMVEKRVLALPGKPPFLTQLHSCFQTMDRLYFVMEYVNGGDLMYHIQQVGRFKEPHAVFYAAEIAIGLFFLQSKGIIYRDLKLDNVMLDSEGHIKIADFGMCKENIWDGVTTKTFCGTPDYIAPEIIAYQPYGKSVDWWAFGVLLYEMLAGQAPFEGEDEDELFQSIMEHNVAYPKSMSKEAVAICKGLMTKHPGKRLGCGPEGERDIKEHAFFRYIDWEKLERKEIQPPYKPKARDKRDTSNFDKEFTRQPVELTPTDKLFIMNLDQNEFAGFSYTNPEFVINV
Aurora B, sequence (Q96GD4 whole entry): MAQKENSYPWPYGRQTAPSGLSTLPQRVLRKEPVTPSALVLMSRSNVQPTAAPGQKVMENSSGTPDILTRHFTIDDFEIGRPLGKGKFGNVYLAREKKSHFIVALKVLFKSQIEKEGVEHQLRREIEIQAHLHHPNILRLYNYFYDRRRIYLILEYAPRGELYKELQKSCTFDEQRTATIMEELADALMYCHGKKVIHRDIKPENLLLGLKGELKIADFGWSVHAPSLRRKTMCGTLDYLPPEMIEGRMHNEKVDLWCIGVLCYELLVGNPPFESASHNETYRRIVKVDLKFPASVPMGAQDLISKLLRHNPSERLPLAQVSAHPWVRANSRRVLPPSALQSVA
ERK1, sequence (P27361 whole entry): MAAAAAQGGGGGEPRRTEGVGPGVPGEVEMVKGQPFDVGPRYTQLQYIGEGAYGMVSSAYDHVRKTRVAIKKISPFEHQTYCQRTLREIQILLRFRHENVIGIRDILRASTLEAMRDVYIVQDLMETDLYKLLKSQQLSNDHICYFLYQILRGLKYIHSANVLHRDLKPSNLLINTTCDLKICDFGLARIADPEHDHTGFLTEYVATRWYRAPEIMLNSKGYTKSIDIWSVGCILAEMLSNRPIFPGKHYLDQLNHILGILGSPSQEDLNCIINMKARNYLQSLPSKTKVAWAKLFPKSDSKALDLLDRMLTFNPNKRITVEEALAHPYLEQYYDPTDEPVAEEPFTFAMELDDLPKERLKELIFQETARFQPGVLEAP
RSK2, sequence (P51812 whole entry): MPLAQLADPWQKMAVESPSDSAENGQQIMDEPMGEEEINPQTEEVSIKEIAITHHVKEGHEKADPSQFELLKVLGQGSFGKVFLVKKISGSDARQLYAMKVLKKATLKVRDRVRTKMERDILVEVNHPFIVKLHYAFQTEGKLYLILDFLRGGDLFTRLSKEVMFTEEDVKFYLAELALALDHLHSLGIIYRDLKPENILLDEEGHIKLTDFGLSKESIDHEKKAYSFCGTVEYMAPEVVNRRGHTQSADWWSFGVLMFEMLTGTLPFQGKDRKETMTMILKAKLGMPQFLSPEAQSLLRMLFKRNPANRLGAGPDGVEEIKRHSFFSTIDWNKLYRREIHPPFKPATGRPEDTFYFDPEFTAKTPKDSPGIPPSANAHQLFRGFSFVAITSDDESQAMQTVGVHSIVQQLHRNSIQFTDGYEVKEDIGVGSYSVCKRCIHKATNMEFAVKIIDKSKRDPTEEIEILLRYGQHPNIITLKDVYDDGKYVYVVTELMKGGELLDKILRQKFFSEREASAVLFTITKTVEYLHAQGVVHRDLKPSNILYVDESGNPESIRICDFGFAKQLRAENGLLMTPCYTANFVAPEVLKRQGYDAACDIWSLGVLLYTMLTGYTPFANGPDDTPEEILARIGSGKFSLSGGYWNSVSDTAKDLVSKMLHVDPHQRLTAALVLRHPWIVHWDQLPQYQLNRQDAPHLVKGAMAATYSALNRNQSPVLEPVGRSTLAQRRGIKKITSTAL
p38α MAPK, sequence (Q16539 whole entry): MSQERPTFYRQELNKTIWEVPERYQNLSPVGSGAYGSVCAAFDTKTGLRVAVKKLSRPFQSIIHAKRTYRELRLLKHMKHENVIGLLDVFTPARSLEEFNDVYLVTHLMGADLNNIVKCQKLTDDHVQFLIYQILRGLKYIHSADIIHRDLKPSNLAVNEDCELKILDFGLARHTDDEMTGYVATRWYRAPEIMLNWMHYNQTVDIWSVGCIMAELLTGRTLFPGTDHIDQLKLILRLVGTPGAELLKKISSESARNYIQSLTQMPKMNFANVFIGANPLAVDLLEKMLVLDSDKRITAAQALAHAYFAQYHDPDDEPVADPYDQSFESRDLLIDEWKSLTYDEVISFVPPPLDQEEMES
MARK1, sequence (Q9P0L2 whole entry): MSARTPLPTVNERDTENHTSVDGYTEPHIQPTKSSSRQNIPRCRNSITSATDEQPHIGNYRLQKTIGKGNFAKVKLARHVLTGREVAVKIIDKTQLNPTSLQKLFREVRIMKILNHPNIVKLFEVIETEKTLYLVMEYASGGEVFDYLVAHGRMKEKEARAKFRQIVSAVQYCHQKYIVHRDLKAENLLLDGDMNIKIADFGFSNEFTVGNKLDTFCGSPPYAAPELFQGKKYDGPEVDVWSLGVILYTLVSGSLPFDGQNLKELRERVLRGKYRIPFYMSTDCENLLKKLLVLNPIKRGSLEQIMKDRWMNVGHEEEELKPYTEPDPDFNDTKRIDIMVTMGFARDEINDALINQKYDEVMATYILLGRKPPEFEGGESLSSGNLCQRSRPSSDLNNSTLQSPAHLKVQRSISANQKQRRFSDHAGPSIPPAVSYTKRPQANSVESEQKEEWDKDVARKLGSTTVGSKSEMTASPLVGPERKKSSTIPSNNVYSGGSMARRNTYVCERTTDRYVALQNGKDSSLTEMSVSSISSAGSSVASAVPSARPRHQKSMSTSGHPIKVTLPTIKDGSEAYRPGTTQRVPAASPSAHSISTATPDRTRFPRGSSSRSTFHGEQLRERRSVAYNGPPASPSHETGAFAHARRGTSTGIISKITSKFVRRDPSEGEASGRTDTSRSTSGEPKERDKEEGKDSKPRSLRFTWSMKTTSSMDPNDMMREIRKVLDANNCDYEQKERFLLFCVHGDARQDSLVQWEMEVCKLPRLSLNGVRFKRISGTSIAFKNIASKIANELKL

| Compound | activity at 100 µM (RSK2) [%] | activity at 100 µM (PKCβ) [%] | activity at 100 µM (BRSK1) [%] | activity at 100 µM (p38α MAPK) [%] | activity at 100 µM (MARK1) [%] | activity at 100 µM (Aurora B) [%] | activity at 100 µM (ERK1) [%] | activity at 100 µM (ERK8) [%] | activity at 100 µM (TTK) [%] | inhibition at 100 µM (Aurora B; at 100 μM compound) [%] |
| --- | --- | --- | --- | --- | --- | --- | --- | --- | --- | --- |
| Nc1ncnc2c1ncn2C1OC(COP(=O)(O)OP(=O)(O)O)C(O)C1O (stereo not shown) [ADP] | 47.9 | 79.2 | 42.8 | 60.3 | 28.1 | 47.8 | 67.7 | 16.6 | 54.7 | – |
| CC(C)(COP(=O)(O)OP(=O)(O)OC[C@H]1O[C@@H](n2cnc3c(N)ncnc32)[C@H](O)[C@@H]1OP(=O)(O)O)[C@@H](O)C(=O)NCCC(=O)NCCS [CoA, Coenzyme A] | 96.5 | 118 | 110 | 112 | 95.3 | 54.3 | 118 | 101 | 101 | 46 |
| CC(C)(COP(=O)(O)OP(=O)(O)OCC1OC(n2cnc3c(N)ncnc32)C(O)C1O)C(O)C(=O)NCCC(=O)NCCS (stereo not shown) [dpCoA, dephospho-CoA] | 62.9 | 105 | 96.4 | 87.7 | 68 | 55.1 | 114 | 38.5 | 75.8 | – |
